Results: patent publication EP2070521A1, “Surface-modified nanoparticles” (Bayer Schering Pharma Aktiengesellschaft, priority 2007, dated 2009)

Test: in vivo
Conditions: male, NMRI nu/nu, mouse, iv, 8 mg/kg

Kp at 1 h: 16.3
Kp at 2 h: 29.1
Kp at 4 h: 27.7
Structure (SMILES): C=CC[C@H]1C(=O)C(C)(C)[C@@H](O)CC(=O)O[C@H](c2ccc3sc(C)nc3c2)C[C@@H]2O[C@]2(C)CCC[C@H](C)[C@@H]1O [epothilone, (1S,3S,7S, 10R,11S,12S,16R)-7,11-dihydroxy-10-(prop-2-en-1-yl)-3-(2-methyl-benzothiazol-5-yl)-8,8,12,16-tetramethyl-4,17-dioxabicyclo[14.1.0]heptadecane-5,9-dione]
